Results as given in ChEMBL document CHEMBL1201862, “PubChem BioAssay data set” (2004).
Where a name gives a salt, the structure may show the parent alone. Activity calls are given as the source filed them.

What was measured:
Beta-galactosidase = Beta-galactosidase (Escherichia coli, UniProt Q8VNN2); assay: PubChem AID 485352; format: functional
[1] = target: T1, Type-1 angiotensin II receptor (Homo sapiens, UniProt P30556); assay: antagonism of angiotensin II type 1 receptor – cell-based, uHTS hits, selectivity assay for APJ receptor antagonist project, dose response (AID 463214); format: functional;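 also: antagonist potency against angiotensin II stimulated AT1 response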
T1 sequence (P30556 whole entry): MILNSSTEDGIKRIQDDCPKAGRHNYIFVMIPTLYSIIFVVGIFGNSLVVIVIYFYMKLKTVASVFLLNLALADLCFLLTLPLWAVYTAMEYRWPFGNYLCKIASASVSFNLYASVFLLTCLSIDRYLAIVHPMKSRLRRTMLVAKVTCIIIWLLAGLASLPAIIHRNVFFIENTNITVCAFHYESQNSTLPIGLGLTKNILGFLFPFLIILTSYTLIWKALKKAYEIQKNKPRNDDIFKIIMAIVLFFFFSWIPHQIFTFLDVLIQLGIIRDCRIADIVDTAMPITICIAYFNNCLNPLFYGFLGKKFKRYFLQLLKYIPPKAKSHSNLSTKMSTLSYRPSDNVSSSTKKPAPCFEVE

[2] = target: Beta-2 adrenergic receptor (Homo sapiens, UniProt P07550); assay: ADRB2 activation measured by internalization – cell-based, FAP fluorogen, flow cytometry, cherry pick 1, dose response (AID 588763); format: functional
Chain of Beta-2 adrenergic receptor (P07550 whole entry): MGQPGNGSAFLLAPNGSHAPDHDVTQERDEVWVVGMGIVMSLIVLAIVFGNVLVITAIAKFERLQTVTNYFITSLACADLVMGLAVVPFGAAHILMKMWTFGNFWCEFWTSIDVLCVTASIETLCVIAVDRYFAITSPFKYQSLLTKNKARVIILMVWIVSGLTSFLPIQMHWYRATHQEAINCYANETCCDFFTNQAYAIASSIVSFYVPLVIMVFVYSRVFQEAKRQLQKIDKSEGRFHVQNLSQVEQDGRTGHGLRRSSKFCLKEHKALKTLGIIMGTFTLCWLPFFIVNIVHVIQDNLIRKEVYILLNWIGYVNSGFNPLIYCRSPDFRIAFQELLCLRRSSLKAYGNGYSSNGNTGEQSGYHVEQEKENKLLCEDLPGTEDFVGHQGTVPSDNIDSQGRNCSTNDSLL

Phospholipase A2 = Phospholipase A2 (Homo sapiens, UniProt P04054); format: functional;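 also: confirmatory dose-response counterscreen on phospholipase A2, testing hits that came from an ultra-high-throughput screen for ATG4B inhibitors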
Chain of Phospholipase A2 (P04054 whole entry): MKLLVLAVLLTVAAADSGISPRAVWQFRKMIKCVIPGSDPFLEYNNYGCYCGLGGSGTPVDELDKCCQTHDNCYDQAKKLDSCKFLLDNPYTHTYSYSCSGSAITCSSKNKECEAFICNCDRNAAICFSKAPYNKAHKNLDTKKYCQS

Cysteine protease ATG4B = target: T2, Cysteine protease ATG4B (Homo sapiens, UniProt Q9Y4P1); format: functional;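 also: Fluorescence-based dose-response confirmation assay measuring inhibition of ATG4B activity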
T2 sequence (Q9Y4P1 whole entry): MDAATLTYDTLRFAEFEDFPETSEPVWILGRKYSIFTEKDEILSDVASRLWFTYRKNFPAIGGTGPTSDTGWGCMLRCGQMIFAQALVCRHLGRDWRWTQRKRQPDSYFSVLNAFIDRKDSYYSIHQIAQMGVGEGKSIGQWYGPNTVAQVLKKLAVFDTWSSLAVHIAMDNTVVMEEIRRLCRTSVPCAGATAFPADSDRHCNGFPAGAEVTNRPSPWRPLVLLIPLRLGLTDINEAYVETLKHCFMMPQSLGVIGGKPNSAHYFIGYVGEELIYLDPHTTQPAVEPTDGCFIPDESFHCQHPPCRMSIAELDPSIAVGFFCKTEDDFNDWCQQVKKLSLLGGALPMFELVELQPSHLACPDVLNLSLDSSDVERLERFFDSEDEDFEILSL

SUMO-activating enzyme = SUMO-activating enzyme (Homo sapiens, UniProt Q9UBT2); assay: blockers of UBC9-mediated SUMO conjugation – biochemical, AlphaScreen, SUMOylation inhibitor project, confirmation (AID 2018); format: functional
Chain of SUMO-activating enzyme (Q9UBE0 whole entry): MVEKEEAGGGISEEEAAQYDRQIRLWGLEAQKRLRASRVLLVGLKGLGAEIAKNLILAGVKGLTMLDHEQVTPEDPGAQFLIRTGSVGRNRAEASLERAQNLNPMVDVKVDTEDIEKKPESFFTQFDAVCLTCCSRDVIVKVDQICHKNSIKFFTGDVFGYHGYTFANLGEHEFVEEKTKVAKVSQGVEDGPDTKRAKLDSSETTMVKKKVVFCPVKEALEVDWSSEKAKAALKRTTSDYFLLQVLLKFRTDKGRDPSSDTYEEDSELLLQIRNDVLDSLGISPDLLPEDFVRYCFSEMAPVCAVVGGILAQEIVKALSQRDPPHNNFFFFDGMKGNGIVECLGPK
Chain of SUMO-activating enzyme (Q9UBT2 whole entry): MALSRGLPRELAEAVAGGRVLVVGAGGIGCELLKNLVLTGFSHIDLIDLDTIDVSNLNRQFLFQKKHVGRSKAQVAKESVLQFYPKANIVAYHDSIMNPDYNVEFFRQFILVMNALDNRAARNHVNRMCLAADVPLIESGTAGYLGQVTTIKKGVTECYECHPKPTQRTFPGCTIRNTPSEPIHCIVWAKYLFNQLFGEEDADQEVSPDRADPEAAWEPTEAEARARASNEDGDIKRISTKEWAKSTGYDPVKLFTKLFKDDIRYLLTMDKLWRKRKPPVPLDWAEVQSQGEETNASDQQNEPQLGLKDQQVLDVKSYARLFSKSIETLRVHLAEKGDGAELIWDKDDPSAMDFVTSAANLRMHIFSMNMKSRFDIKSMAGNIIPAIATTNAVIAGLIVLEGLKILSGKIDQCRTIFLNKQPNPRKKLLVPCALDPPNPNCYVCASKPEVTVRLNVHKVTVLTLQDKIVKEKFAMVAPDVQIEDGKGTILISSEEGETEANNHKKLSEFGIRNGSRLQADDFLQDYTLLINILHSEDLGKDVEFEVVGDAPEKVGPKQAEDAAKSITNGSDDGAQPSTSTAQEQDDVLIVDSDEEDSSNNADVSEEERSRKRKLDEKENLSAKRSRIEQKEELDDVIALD

[3] = target: Voltage-gated inwardly rectifying potassium channel KCNH2 (Homo sapiens, UniProt Q12809); conditions: Potency;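 also: confirmatory quantitative high-throughput screen measuring inhibition of hERG channel activity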
Chain of Voltage-gated inwardly rectifying potassium channel KCNH2 (Q12809 whole entry): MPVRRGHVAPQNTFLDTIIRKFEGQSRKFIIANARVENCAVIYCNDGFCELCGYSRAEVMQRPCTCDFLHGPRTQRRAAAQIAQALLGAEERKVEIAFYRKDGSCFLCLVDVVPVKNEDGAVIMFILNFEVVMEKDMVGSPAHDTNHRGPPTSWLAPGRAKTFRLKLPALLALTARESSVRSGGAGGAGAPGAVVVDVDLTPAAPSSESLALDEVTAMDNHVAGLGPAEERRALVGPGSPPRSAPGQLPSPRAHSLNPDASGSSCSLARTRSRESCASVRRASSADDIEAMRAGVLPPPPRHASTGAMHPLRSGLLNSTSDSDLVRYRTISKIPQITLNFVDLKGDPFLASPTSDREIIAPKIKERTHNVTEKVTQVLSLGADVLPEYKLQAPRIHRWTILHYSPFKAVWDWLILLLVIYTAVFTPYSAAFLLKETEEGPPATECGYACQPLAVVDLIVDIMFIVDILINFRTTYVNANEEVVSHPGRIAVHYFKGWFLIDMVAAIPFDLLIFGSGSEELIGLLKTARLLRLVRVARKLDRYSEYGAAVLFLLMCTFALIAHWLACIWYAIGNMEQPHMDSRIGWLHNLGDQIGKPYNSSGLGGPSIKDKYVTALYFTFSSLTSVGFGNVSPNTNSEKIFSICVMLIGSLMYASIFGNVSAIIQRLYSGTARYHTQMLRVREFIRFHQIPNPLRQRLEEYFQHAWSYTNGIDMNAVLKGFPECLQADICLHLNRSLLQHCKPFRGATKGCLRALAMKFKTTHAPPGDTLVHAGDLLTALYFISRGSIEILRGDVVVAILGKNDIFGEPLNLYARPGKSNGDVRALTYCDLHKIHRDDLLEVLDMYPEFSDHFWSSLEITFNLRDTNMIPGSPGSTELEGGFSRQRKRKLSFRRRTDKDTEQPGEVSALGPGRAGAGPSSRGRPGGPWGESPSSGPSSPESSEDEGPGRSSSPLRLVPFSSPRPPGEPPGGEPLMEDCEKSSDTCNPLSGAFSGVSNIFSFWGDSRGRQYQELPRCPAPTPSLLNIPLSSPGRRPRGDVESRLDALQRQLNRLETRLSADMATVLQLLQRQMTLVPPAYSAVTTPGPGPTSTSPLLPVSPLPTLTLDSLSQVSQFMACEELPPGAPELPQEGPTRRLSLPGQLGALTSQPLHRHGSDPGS

Troponin, cardiac muscle = Troponin, cardiac muscle (Homo sapiens, UniProt P19429+P45379+P63316); assay: Fluorescence-based biochemical high throughput dose response assay for activators of the calcium sensitivity of cardiac Regulated Thin Filaments (RTF). [Related pubchem assays (depositor defined):AID493008, AID493018, AID504382, AID504383]; format: protein-complex assay
Vero = assay: cells; format: functional; conditions: Chlorocebus sabaeus
[4] = Trypanosoma cruzi growth suppression in host cells – NIH3T3 host cells, beta-gal luminescence, confirmation (AID 2044); format: functional, cell-based;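 also: intracellular parasites grown in NIH/3T3 mouse fibroblasts as host cells; luminescent beta-galactosidase reporter signal from transgenic T. cruzi replicating inside host cells; inhibitors lower the luminescence signal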
[5] = NIH3T3 cell viability loss – ATP luminescence, mouse fibroblasts, counter-screen, dose response (AID 2010); format: functional, cell-based;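 also: cells exposed to compound for about 90 hours before reading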
[6] = Luminescence Cell-Based Dose Retest to Confirm Inhibitors of Cancer Stem Cells. [Related pubchem assays (depositor defined):AID2717, AID2721]; format: functional; conditions: Homo sapiens
[7] = Luminescence Cell-Based Dose Confirmation HTS to Identify Activators of 5'UTR Stem-Loop Driven Alpha-Synuclein mRNA Translation in H4 Neuroglioblastoma Cells. [Related pubchem assays: 1829 (Project Summary), 1814 (Primary HTS)]; format: functional
H4 = assay: Luminescence Cell-Based Dose Response HTS to Identify Activators of 5'UTR Stem-Loop Driven Prion Protein mRNA Translation in H4 Neuroglioblastoma Cells. [Related pubchem assays: 1829 (Project Summary), 1814 (Primary HTS)]; format: functional; conditions: Homo sapiens
[8] = Luminescence Cell-Based Dose Response HTS to Identify Activators of Luciferase Translation or Activity in H4 […] Cells. [Related pubchem assays: 1829 (Project Summary), 1814 (Primary HTS)]; format: functional
Cytochrome P450 3A4 [9] = target: T3, Cytochrome P450 3A4 (Homo sapiens, UniProt P08684);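 also: CYP3A4 tested as one member of a cytochrome P450 panel screen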
T3 sequence (P08684 whole entry): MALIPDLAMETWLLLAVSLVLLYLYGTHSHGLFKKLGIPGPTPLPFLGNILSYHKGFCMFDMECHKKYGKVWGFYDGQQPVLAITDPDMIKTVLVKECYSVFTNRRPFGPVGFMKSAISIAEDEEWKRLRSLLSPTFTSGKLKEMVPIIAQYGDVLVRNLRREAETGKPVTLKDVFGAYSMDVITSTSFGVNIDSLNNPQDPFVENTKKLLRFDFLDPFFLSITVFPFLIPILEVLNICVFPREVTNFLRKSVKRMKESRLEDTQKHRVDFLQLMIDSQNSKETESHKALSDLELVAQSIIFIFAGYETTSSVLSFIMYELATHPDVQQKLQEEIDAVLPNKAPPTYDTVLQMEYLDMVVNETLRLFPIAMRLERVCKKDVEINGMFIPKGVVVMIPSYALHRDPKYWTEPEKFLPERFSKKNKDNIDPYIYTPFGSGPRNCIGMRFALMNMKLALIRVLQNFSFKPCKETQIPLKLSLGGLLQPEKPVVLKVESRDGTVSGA

[10] = target: DNA dC->dU-editing enzyme APOBEC-3G (Homo sapiens, UniProt Q9HC16); format: functional;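 also: Dose-response counterscreen measuring inhibition of APOBEC3G DNA deaminase activity, run while confirming APOBEC3A inhibitors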
Chain of DNA dC->dU-editing enzyme APOBEC-3G (Q9HC16 whole entry): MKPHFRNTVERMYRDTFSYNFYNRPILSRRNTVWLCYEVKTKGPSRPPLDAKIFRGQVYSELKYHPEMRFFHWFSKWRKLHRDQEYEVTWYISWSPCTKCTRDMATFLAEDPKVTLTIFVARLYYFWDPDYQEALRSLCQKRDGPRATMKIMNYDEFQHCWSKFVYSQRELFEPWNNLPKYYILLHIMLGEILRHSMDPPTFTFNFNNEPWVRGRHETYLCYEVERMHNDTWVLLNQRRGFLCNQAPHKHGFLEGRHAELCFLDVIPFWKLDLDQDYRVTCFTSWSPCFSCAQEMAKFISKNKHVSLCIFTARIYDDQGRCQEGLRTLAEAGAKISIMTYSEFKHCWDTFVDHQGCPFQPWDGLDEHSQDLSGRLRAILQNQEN

[11] = target: DNA dC->dU-editing enzyme APOBEC-3A (Homo sapiens, UniProt P31941); assay: Dose Response confirmation of small molecule APOBEC3A DNA Deaminase Inhibitors via a fluorescence-based single-stranded DNA deaminase assay. [Related pubchem assays (depositor defined):AID493011, AID493024]; format: functional
Chain of DNA dC->dU-editing enzyme APOBEC-3A (P31941 whole entry): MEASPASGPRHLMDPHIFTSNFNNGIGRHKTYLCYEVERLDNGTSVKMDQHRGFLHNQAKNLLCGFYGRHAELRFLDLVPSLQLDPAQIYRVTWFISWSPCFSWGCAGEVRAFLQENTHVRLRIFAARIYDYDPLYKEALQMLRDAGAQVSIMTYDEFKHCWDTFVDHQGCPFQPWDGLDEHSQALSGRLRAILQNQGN

[12] = target: Glucose-6-phosphate 1-dehydrogenase (Homo sapiens, UniProt P11413); assay: inhibition of Homo sapiens G6PD, dose series – biochemical, fluorescence, selectivity assay for P. falciparum G6PD inhibitor project, dose response (AID 504792); format: functional
Chain of Glucose-6-phosphate 1-dehydrogenase (P11413 whole entry): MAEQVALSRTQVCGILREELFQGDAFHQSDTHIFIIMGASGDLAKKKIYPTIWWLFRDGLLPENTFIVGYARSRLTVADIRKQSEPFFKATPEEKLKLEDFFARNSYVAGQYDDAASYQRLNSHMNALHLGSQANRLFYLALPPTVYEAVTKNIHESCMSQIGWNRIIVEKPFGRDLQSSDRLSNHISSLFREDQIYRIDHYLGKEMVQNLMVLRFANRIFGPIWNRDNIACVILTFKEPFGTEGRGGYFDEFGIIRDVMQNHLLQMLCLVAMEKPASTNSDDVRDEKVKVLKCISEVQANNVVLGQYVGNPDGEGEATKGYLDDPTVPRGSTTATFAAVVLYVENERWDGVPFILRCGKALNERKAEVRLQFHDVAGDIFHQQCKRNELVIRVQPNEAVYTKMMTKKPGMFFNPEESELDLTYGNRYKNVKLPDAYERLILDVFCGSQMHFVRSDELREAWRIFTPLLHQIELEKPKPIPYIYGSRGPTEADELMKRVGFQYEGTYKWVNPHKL

Cytochrome P450 3A4 [13] = target: T3, Cytochrome P450 3A4; remark: listed apart in the source
[14] = NIH-3T3 fibroblast cytotoxicity, dose response, cytotoxicity control, cell-based, fluorescence, Alamar Blue, secondary assay (AID 2327); format: functional;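 also: NIH-3T3 mouse fibroblasts cultured with fluconazole at 8 µg/mL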
[15] = fluconazole-exposed Candida albicans growth modulators – fluorescence, retest, confirmation (AID 2467); format: functional, cell-based
Melanocortin receptor 4 = Melanocortin receptor 4 (Homo sapiens, UniProt P32245); assay: inhibitors of MC4R cAMP signaling – cell-based, TR-FRET, biased antagonists, dose response (AID 602298); format: functional;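 also: antagonist potency against agonist-stimulated cAMP production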
Chain of Melanocortin receptor 4 (P32245 whole entry): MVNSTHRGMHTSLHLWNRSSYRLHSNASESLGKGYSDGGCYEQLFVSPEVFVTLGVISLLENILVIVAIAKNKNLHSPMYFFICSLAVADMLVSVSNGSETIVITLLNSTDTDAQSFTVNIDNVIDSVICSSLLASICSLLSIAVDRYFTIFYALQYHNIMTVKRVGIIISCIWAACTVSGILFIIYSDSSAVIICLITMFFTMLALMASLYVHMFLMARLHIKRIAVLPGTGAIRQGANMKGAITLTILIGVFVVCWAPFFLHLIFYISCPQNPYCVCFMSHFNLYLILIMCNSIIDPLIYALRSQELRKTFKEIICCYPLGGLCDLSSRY

[16] = cAMP pathway inhibition in counterscreen cell line – TR-FRET cAMP detection, counter-screen for MC4R biased antagonist project, dose response (AID 602305); format: functional, cell-based;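 also: U2OS cells stimulated with forskolin near its EC80 as the cAMP inducer; potency is for inhibition of forskolin-stimulated cAMP signaling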
HEK293 [17] = assay: cells; conditions: Homo sapiens
HEK293 [18] = assay: cells; conditions: Homo sapiens; remark: listed apart in the source
cells [19] = format: functional, cell-based
cells [20] = format: functional, cell-based; remark: listed apart in the source
[21] = target: G-protein coupled receptor 55 (Homo sapiens, UniProt Q9Y2T6); assay: inhibition of LPI-stimulated GPR55 beta-arrestin translocation – imaging, U2OS, beta-arrestin-GFP, LPI agonist, primary screen (AID 2013); format: functional;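 also: antagonist potency measured as reduced agonist-driven arrestin aggregation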
Chain of G-protein coupled receptor 55 (Q9Y2T6 whole entry): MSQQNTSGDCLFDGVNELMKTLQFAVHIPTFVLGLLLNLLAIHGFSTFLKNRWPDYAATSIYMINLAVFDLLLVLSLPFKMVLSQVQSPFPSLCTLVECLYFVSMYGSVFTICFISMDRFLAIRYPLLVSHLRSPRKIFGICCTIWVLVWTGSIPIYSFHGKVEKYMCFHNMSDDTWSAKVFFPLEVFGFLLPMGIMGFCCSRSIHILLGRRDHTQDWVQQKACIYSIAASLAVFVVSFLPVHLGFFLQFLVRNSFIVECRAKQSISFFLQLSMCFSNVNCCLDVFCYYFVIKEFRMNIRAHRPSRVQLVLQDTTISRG

[22] = THP-1 cell cytotoxicity, dose response, cytotoxicity control for non-replicating M. tuberculosis project (AID 489025); format: functional
[23] = target: T4, High affinity choline transporter 1 (Homo sapiens, UniProt Q9GZV3); assay: human choline transporter blockers, potency – cell-based, 5-point CRC, membrane potential dye, dose response (AID 504840); format: functional
T4 sequence (Q9GZV3 whole entry): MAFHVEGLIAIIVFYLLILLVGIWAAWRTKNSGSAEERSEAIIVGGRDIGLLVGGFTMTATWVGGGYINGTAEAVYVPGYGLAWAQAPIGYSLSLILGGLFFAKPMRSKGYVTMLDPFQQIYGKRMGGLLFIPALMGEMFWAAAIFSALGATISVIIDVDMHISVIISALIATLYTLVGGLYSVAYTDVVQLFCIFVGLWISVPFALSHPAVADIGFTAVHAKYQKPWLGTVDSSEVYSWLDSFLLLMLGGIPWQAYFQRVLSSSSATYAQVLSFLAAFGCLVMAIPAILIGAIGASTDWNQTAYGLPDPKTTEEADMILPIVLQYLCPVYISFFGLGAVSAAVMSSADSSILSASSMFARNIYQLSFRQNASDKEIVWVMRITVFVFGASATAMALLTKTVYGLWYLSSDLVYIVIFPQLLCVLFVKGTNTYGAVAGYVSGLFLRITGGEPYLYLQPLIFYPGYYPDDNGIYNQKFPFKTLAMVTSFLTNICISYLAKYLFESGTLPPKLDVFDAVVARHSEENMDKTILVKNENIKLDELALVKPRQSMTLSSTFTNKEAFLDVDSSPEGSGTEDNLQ

H9c2 = assay: cells; format: functional, cell-based; conditions: Rattus norvegicus, H9c2, Myocardium;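 also: confirmatory concentration-response retest of ultra-high-throughput screening hits for modulation of myocardial damage; cell death induced by hydrogen peroxide oxidative stress; compound pretreatment for 60 min then peroxide exposure for 2 h; potency is for protecting the cells against peroxide damage rather than for killing them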

CCN(CC)c1nc(C)c(C(S)=Nc2cc([N+](=O)[O-])ccc2Cl)s1
EC50 (Beta-galactosidase): 24.8 µM (active) | IC50 [1]: > 40 µM (not active)

CC1=C(C#N)C(c2cn(-c3ccccc3)nc2-c2cccs2)C(C#N)=C(C)N1
EC50 [2]: 0.327 µM (inactive)

Nc1c(N2CCN(c3ccccc3)CC2)c2ccccc2oc1=O
IC50 (Phospholipase A2): 12.9 µM (active) | IC50 (Cysteine protease ATG4B): 20.4 µM (inactive)

O=C(c1ccc2c(c1)nc(S)n1c3ccccc3nc21)N1CCN(c2ncccn2)CC1
IC50 (SUMO-activating enzyme): 50.6 µM (active)

O=[N+]([O-])c1ccccc1-c1ccccc1
AC50 [3]: 39.8 µM (inconclusive)

O=C(C1=C(O)C(=O)N(CCN2CCOCC2)C1c1ccc([N+](=O)[O-])cc1)c1cccs1 (stereo unspecified)
EC50 (Troponin, cardiac muscle): > 71.4 µM (inactive)

CN(C)CCNC(=O)COc1ccc(C23CC4CC(CC(C4)C2)C3)cc1
CC50 (Vero): 18.5 µM (active) | EC50 [4]: 1.83 µM (active) | EC50 [5]: > 60 µM (inconclusive) | AC50 [6]: 4.95 µM (active)

O=C(/C=C/c1cccc(O)c1)c1ccc(N2CCOCC2)cc1
CC50 (Vero): 12.7 µM (active) | EC50 [7]: > 120 µM (not active) | EC50 (H4): > 120 µM (not active) | EC50 [8]: 12.3 µM (active)

N#Cc1ccc(CN2CC3(CCN(C(=O)c4cccc(F)c4)CC3)C2)cc1
AC50 (Cytochrome P450 3A4 [9]): inconclusive

C[N+]1(CC(COCc2ccccc2)OC(=O)Cc2ccccc2)CCOCC1 (stereo unspecified)
IC50 [10]: 2.42 µM (active) | IC50 [11]: 2.41 µM (active)

CCOC(=O)c1cnc2ccc(C)cc2c1Sc1ccccc1C(=O)OC
IC50 [12]: > 80 µM (inactive) | EC50 [4]: 4.01 µM (active) | EC50 [5]: > 60 µM (not active) | AC50 (Cytochrome P450 3A4 [13]): 39.8 µM (inconclusive)

CCc1cc(-c2[nH]nc(C)c2-c2ccccc2Cl)c(O)cc1OC
EC50 [14]: 6.06 µM (inconclusive) | IC50 [12]: > 80 µM (inactive) | EC50 [15]: > 38 µM (not active) | AC50 [6]: 4.42 µM (active)

CCCCC(=O)Nc1ccc(C(=O)N(CC)c2ccccc2C)cc1
EC50 [2]: 17.5 µM (inactive)

Cc1nn(-c2ccccc2)c(Cl)c1/C=N/Nc1nc2ccccc2n1C
IC50 [12]: > 80 µM (inactive) | EC50 [4]: 1.94 µM (active) | EC50 [5]: > 60 µM (not active)

CNCC(O)c1ccc(OC(=O)C(C)(C)C)c(OC(=O)C(C)(C)C)c1 (stereo unspecified) [DIPIVEFRIN HYDROCHLORIDE]
EC50 [2]: 7.13 µM (active)

COc1ccccc1NS(=O)(=O)c1cc(NC(=O)c2cc3ccccc3oc2=O)ccc1C
EC50 (Troponin, cardiac muscle): > 71.5 µM (inactive)

COc1ccc(CC(=O)Oc2ccc(F)c(F)c2)cc1S(=O)(=O)N1CCOCC1
IC50 (Melanocortin receptor 4): > 64.6 µM (inactive) | IC50 [16]: > 64.6 µM (inactive)

CCOC(=O)c1cnc(-c2ccccc2)nc1Oc1ccccc1
AC50 (Cytochrome P450 3A4 [9]): inconclusive

COc1cc2c(cc1OC)-c1nnc(-c3cccs3)n1C(C)(C)C2
EC50 (HEK293 [17]): > 59.6 µM (inactive) | EC50 (HEK293 [18]): > 59.6 µM (inactive)

CCCCNC(=O)CSc1nc2ccc(NC(=O)CSc3nnc(N)s3)cc2s1
IC50 [10]: 6.28 µM (active) | IC50 [11]: 3.61 µM (active)

c1ccc(Cc2nnc(-c3ccccc3)o2)cc1
CC50 (Vero): 16.3 µM (active) | EC50 (cells [19]): > 350 µM (not active) | EC50 (cells [20]): 56.3 µM (active) | IC50 [21]: 3.3 µM (active) | CC50 [22]: > 40 µM (active)

Cc1ccc(N2C(=O)NC(=O)/C(=C/C=C/Nc3ccccc3)C2=O)cc1
EC50 (Troponin, cardiac muscle): 5.48 µM (active)

O=C(c1cccc(F)c1)N1CCC2(CCN(Cc3cc(C(F)(F)F)cc(C(F)(F)F)c3)CC2)CC1
AC50 (Cytochrome P450 3A4 [9]): inconclusive

Cc1cccc(/N=C/c2cc(Br)cc(Cl)c2O)c1
IC50 [23]: 13.3 µM (active) | IC50 (Phospholipase A2): 12.1 µM (active) | IC50 (H9c2): > 79 µM (inactive) | IC50 (Cysteine protease ATG4B): 8.52 µM (active)
